The subject of one data set is H358 cells. The data set is described as follows: H358 cell proliferation inhibition (CellTiter-Glo luminescent cell viability assay). The format is cell-based. The settings on record: Homo sapiens, NCI-H358, 168 h, 7 days. Summed up: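 H358 cells seeded at 3000 cells/well in RPMI1640/10% FBS, treated with compound for 7 days at 37 °C/5% CO2. Viability read by CellTiter-Glo 3D luminescence, normalised to cell-free (100%) and compound-free (0%) controls; IC50 fitted from 8 concentrations by four-parameter curve.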
Background: In ATP-based viability assays light output follows the ATP content of the culture.

Data set [1] concerns p-ERK pathway in H358 cells. Kind of data set: p-ERK pathway inhibition in H358 cells (Advanced phospho-ERK (Thr202/Tyr204) cellular kit, HTRF). Format: cell-based. To be noted: Homo sapiens, NCI-H358, 1 h compound incubation. In outline: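 Serum-starved H358 cells (50000/well, overnight) treated with compound for 1 h at 37 °C, then lysed; phospho-ERK (Thr202/Tyr204) read by HTRF (665/620 nm ratio). Cell-free wells set 100% inhibition, untreated cells 0%; IC50 fitted from 8 concentrations by four-parameter curve.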

Data set [2] is described as follows: Pharmacokinetics in mice after single intragastric or intravenous administration. Format: in vivo. The settings on record: female, BALB/c nude, mouse, plasma. As for the experimental part:
Healthy adult female BALB/c nude mice were evenly divided into groups of 3 mice per group. 3 mice were administered intragastrically, and 3 mice were administered intravenously. The mice were purchased from Beijing Vital River Laboratory Animal Technology Co., Ltd., animal production license number: SCXK (Zhejiang) 2019-0001.
A certain amount of the compound of the present invention was weighed and dissolved in 5% DMSO + 20% PG + 5% anhydrous ethanol + 10% solutol + 60% water to prepare 5 mg/mL for intragastric administration. A certain amount of the compound of the present invention was weighed and dissolved in 1% DMSO + 4% PG + 1% anhydrous ethanol + 2% solutol + 92% water to prepare 0.5 mg/mL for intravenous injection.
Intragastric administration group: BALB/c nude mice were fasted overnight and then intragastrically administered the compound at a dose of 50 mg/kg and a volume of 10 mL/kg.
Intravenous administration group: BALB/c nude mice were fasted overnight and then intravenously administered the compound at a dose of 3 mg/kg and a volume of 6 mL/kg.
After intragastric administration or intravenous administration, 40 µL of blood was collected from orbits of the mice at 5 min, 15 min, 30 min, 1 h, 2 h, 4 h, 6 h, 8 h, and 24 h after administration, anticoagulated with 5 µL of EDTA-K2, centrifuged at 12000 rpm at 4 °C for 5 min to separate the plasma, and stored at -20 °C.
Determination of plasma concentrations in mice after intragastric administration or intravenous administration of different concentrations of the test compounds: the sample was melted at room temperature and vortexed for 1 min; 10 µL of the sample was quantitatively transferred to a 2-mL 96-well plate; 50 µL of an internal standard solution (a solution of tolbutamide in acetonitrile) and 50 µL of a precipitant (acetonitrile:methanol 7:3) were added, and the plate was shaken (1000 rpm * 3 min); the mixture was centrifuged (4000 rpm * 15 min); 80 µL of the supernatant was transferred to a 2-mL 96-well plate; 80 µL of a diluent (water) was added; the mixture was shaken evenly (1000 rpm * 3 min), and 5 µL of the sample was analyzed. LC/MS/MS conditions: The mobile phase A was 0.1% aqueous formic acid solution. The mobile phase B was 0.1% formic acid in acetonitrile. The column was Waters T3 1.8 µm (2.1 mm * 30 mm). The column temperature was 40 °C.

[3] abbreviates: po, single intragastric administration, 50 mg/kg.
Where [4] appears, read: single intravenous administration, 3 mg/kg.

Molecules are shown by their SMILES.

The source of these data is patent publication EP4417607A1, “HETEROCYCLIC COMPOUND AS SOS1 INHIBITOR AND USES THEREOF” (Nanjing Zaiming Pharmaceutical Co., Ltd., priority 2021, dated 2023).

Broadly, the IC50 is the concentration that gives 50% inhibition. As usually defined, the AUC(0-t) is the area under the concentration-time curve up to a stated or last time point. A low value points to less exposure. One may read the Cmax as the highest concentration seen after dosing. As a reminder, the Tmax is the time at which the peak concentration occurs. For orientation: half-life means the time needed for the level to fall by half in the phase considered. Low values mean fast loss, high ones slow loss. Compound `COc1c(=O)n(C2(CF)CC2)cc2c(N[C@H](C)c3cccc(C(F)F)c3F)nc(C)nc12` [Example 1, (R)-4-((1-(3-(difluoromethyl)-2-fluorophenyl)ethyl)amino)-6-(1-(fluoromethyl)cyclopropyl)-8-methoxy-2-methylpyrido[4,3-d]pyrimidine-7(6H)-one] returned an IC50 with H358 cells of 19.6 nM. In addition, the IC50 in data set [1] was found to be 20.7 nM. In data set [2] (setting [3]), the AUC(0-t) was 17800 ng·h/mL, the Cmax is 9430 ng/mL, the Tmax is 24 min and the half-life is 60 min. In data set [2] (setting [4]), this compound gave an AUC(0-t) of 619 ng·h/mL, a C0 of 2960 ng/mL and a half-life of 30 min. Besides, in data set [2] (single intravenous administration, 3 mg/kg, read-out: Vss), the Vd was determined as 3.8 L/kg.

Turning to `CC(=O)N1CCC(Oc2c(=O)n(C3(CF)CC3)cc3c(N[C@H](C)c4cccc(C(F)F)c4F)nc(C)nc23)CC1` [Example 73, (R)-8-((1-acetylpiperidin-4-yl)oxy)-4-((1-(3-(difluoromethyl)-2-fluorophenyl)ethyl)amino)-6-(1-(fluoromethyl)cyclopropyl)-2-methylpyrido[4,3-d]pyrimidine-7(6H)-one], the figures for the IC50 (in the data set on H358 cells; in data set [1]) were 71.8 nM and 104 nM, respectively.

For `Cc1nc(N[C@H](C)c2cccc(C(F)F)c2F)c2cn(N3CCOCC3)c(=O)c(-c3cnc4ccnn4c3)c2n1` [Example 120, (R)-4-((1-(3-(difluoromethyl)-2-fluorophenyl)ethyl)amino)-2-methyl-6-morpholino-8-(pyrazolo[1,5-a]pyrimidin-6-yl)pyrido[4,3-d]pyrimidine-7(6H)-one], the IC50 came to 46 nM in the data set on H358 cells and 87.4 nM in data set [1].

As to `COc1c(=O)n(N2CCOCC2)cc2c(N[C@H](C)c3cccc(S(F)(F)(F)(F)F)c3)nc(C)nc12` [Example 25], the values for the IC50 (with H358 cells; in data set [1]) were 35.7 nM and 107 nM, respectively.

For `Cc1nc(N[C@H](C)c2cccc(C(F)F)c2F)c2cn(C3(CF)CC3)c(=O)c(OC(C)C)c2n1` [Example 36, (R)-4-((1-(3-(difluoromethyl)-2-fluorophenyl)ethyl)amino)-6-(1-(fluoromethyl)cyclopropyl)-8-isopropoxy-2-methylpyrido[4,3-d]pyrimidine-7(6H)-one], the IC50 amounted to 64.8 nM in the data set with H358 cells and 69.1 nM in data set [1].

In the case of `Cc1nc(N[C@H](C)c2cccc(C(F)F)c2F)c2cn(C3(CF)CC3)c(=O)c(N3CCO[C@@H](C)C3)c2n1` [Example 43, 4-(((R)-1-(3-(difluoromethyl)-2-fluorophenyl)ethyl)amino)-6-(1-(fluoromethyl)cyclopropyl)-2-methyl-8-((S)-2-methylmorpholine)pyrido[4,3-d]pyrimidine-7(6H)-one], the IC50 with H358 cells is 50.8 nM; in data set [1], 49.2 nM.

As to `COc1ccc(-c2c(=O)n(N3CCOCC3)cc3c(N[C@H](C)c4cccc(C#N)c4C)nc(C)nc23)cn1` [Example 162], the IC50 in the data set with H358 cells came to 96.5 nM; in data set [1], 77.5 nM.

As for `Cc1nc(N[C@H](C)c2cccc(C(F)F)c2F)c2cn(C3(CF)CC3)c(=O)c(S(C)(=O)=O)c2n1` [Example 66, (R)-4-((1-(3-(difluoromethyl)-2-fluorophenyl)ethyl)amino)-6-(1-(fluoromethyl)cyclopropyl)-2-methyl-8-(methylsulfonyl)pyrido[4,3-d]pyrimidine-7(6H)-one], the IC50 was 79 nM in the data set on H358 cells and 76.8 nM in data set [1].
